Laboratory results as given in patent publication US20140242600A1, “IMAGING THE HETEROGENEOUS UPTAKE OF RADIOLABELED MOLECULES IN SINGLE LIVING CELLS” (priority 2011, published 2014).

Experiments:
[1] = system: HeLa cells; test: Radioluminescence microscopy of FDG uptake in HeLa cells on scintillator plate; type: cell-based; details: HeLa cells fasted 2 h, 400 μCi FDG 20 min 37° C., 20 minute exposure
Procedure: To visualize the uptake of radiotracer at the microscopic level, cells were cultured directly on a scintillating plate made of a material that converts incident beta radiation into optical photons via radioluminescence. In these experiments, scintillation plates were used with dimensions 10 mm×10 mm×0.5 mm that were made of CdWO4, a dense, high-Z, non-hygroscopic material, with both sides polished to allow for concurrent optical imaging (MTI Corp.). In one experiment, HeLa cells were seeded and cultured on the scintillating plate, immersed in cell culture medium (Dulbecco's Modified Eagle Medium containing 10% fetal calf serum) for 12-18 hours. After the cells had adhered to the surface of the scintillator plate and divided adequately, they were fasted for two hours in glucose-free cell medium and incubated for 20 minutes at 37° C. with 400 μCi of ^18F-fluorodeoxyglucose (FDG). […]
Radioluminescence images were taken with an EM gain of 251/1200, the excitation shutter closed, and the emission shutter open. […] Then, in luminescence mode, the image sharpness was optimized by varying the focal distance while acquiring 5 minute-exposure images. […]

[2] = system: MDA-MB-231 human breast cancer cells; test: Single-cell FDG uptake at a fixed time-point, radioluminescence and fluorescence microscopy; type: cell-based; details: glucose-deprived 1 hour
From the text: In this illustration, the common radiotracer [^18F]fluorodeoxyglucose (FDG) was used. […] The radioluminescence microscopy set-up consisted of cells adhering to a 100 μm-thin CdWO4 scintillator plate that was immersed in a glass-bottom dish filled with cell culture medium as shown schematically in FIG. 2. The dish was imaged using an inverted microscope fitted with a high-NA objective and an electron-multiplying charge-coupled device (EM-CCD).
Brightfield images were acquired with no EM gain, a neutral-density filter on the excitation, and the emission shutter open. […] The brightfield mode was used to set the microscope into focus. […] For fluorescence microscopy, a 460 nm/535 nm filter set for 2-NBDG imaging (Chroma, D460/50x and D535/40m) and a 540 nm/600 nm filter set for RFP imaging (Chroma, HQ540/40x and HQ600/50m) were used.
One side of the scintillator plate was coated with fibronectin (10 μg/ml) to allow the cells to attach. After the plate had dried, the cells were seeded by placing a 50 μl drop containing 10^4 cells on to the fibronectin-coated plate.
After washing the cells, brightfield, radioluminescence and fluorescence micrographs were acquired.
To measure radiotracer uptake in single cells, circular regions of interest (ROI's; diameter, 24 μm) were manually placed on the cells using the brightfield micrograph. […] The same procedure was also applied to fluorescence micrographs.

[3] = system: breast cancer cells (MDA-MB-231); test: Single-cell FDG uptake and efflux over time (pharmacokinetic study), serial radioluminescence imaging; type: cell-based, human
Procedure: To investigate the utility of radioluminescence microscopy for single-cell pharmacokinetic studies, FDG uptake, FDG efflux and FDG withdrawal conditions were analyzed. FDG uptake in breast cancer cells (MDA-MB-231) over time was monitored by depriving cells of glucose for 1 hour and then adding 5 μCi of FDG to the medium. Serial brightfield and radioluminescence images were acquired every 6 minutes for a period of 8 hours.
To monitor FDG efflux, breast cancer cells (MDA-MB-231) were subjected to conditions known to minimize FDG influx, i.e. thorough competition from glucose and withdrawal of FDG.
The influx of FDG into glucose-deprived cells was described using the following two-tissue compartmental kinetic model:
where Ca is the extracellular FDG concentration (assumed to be fixed); C(t) is the time-dependent intracellular FDG concentration (including free FDG and bound FDG-6-P); and K1, k2 and k3 are the rate constants representing influx, efflux, and irreversible phosphorylation of FDG, respectively. Fort>>1/(k2+k3, the intracellular and extracellular compartments are in equilibrium, and the intracellular concentration of FDG increases linearly with time due to irreversible trapping of FDG. The parameters of this linear rise (i.e. slope and intercept) are the Patlak coefficients. The slope of the linear rise is the product of two terms, namely K1 the influx rate, and k3/(k2+k3) is the fraction of the intracellular FDG irreversibly metabolized. A non-linear weighted least-squares fitting was used to estimate the parameters of the model. The fitting weights were adjusted to decrease the contribution of later time points, which have higher noise due to radioactive decay.
A mathematical model was also derived to represent FDG efflux from a cell. The model assumed that (1) following withdrawal of FDG, the concentration of FDG in the cell culture medium remained negligible due to the large extracellular volume (0.2 ml), and (2) k3>>k4. Under these assumptions, FDG concentration within a single cell can be described by the sum of a slow and a fast exponential decay.
Efflux of FDG from cells was modeled using a two-tissue compartmental model:
where a1 and a2 are positive coefficients that depend on the initial conditions, and λ1 and λ2 are the eigenvalues of the differential system of equations describing transport of FDG between compartments. The rate constant k4 which models the possible dephosphorylation of FDG-6-phosphate (FDG-6-P) was included in this model but assumed to be much smaller than k3. Furthermore, due to the large extracellular volume (0.2 ml), the concentration of FDG in the cell culture medium was assumed to remain negligible after withdrawal of FDG. Under these assumptions, the eigenvalues can be approximated as
These rate parameters were estimated by fitting the efflux model to the measured time-activity curves. For cells for which the solution of the fit yielded λ1≈λ2 or λ2<1 min^−1, the efflux curve was fitted with a single exponential function. In the special case of irreversible trapping (k4=0), the model is described by a single exponential decay with rate: λ1=k2+k3. The model was in agreement with radioluminescence measurements of single cells, confirming that two processes are occurring concurrently at different rates. Unbound FDG contained within the cell quickly diffuses out following concentration gradients, whereas FDG-6-phosphate (FDG-6-P) requires slow dephosphorylation to cross the cell membrane.

[4] = system: HeLa cells transduced with HSV1-ttk; test: FHBG accumulation in HeLa cells transduced with mrfp1/HSV1-ttk reporter, radioluminescence and fluorescence microscopy; type: cell-based, human; details: 300 μCi 18F-FHBG 2 hours
From the text: To further exploit the microscope's ability to visualize both fluorescent and radioactive probe distributions, human cervical cancer cells (HeLa) were transduced with a dual fusion reporter vector, comprising reporter genes encoding the monomeric red fluorescent protein (mrfp1) and the mutant herpes simplex virus type 1 truncated thymidine kinase (HSV1-ttk). HSV1-ttk can selectively metabolize and trap radiolabeled substrates such as FHBG. Substrates such as 9-(4-[^18F]Fluoro-3hydroxymethylbutyl) guanine (^18F-FHBG) have low affinity for mammalian thymidine kinase (TK) enzymes but high affinity for HSV1-TK. FHBG is selectively metabolized and trapped within transduced cells so it can be used to image cell trafficking in living subjects with PET.
PCR amplification and standard cloning techniques were used to insert the mrfp and ttk genes from plasmid pCONA3.1-CMV-hrl-mrfp-ttk. Lentiviral EF1-gfp vectors were obtained and the gfp fragment was removed from the vector and replaced by mrfp-ttk. For PCR amplifications, different 5′ and 3′ end primers were used to generate the fusion vector (EF1-mrfp-ttk).
HeLa human cervical cancer and 293T human embryonic kidney cells were acquired and cultured in high-glucose Dulbecco's modified eagle medium supplemented with 10% fetal bovine serum. 293T cells were used to produce the lentivirus following standard procedures. HeLa cells were transduced with concentrated lentivirus for 48 hours and then trypsinized and seeded directly onto a scintillator plate coated with fibronectin (10 μg/ml), one day before imaging.
For imaging of cell transduction with FHBG and RFP, transduced HeLa cells were incubated for 2 hours with 300 μCi of ^18F-FHBG.
In transduced cells, accumulation of FHBG was coincident with expression of mrfp1 measured by fluorescence microscopy. A brightfield image (FIG. 5A), a radioluminescence image (FIG. 5B) and a fluorescence image (FIG. 5C) were obtained from the same field. It was seen that 88% of the cells visible on the brightfield image (217/245) were clearly distinguishable both on radioluminescence (FIG. 5B) and fluorescence images (FIG. 5C), while only 9% (21/245) could not be seen on either image. The remaining 7 cells were excluded from the analysis due to ambiguous radioluminescence intensity caused by the proximity to a strongly positive cell.

[5] = system: wild-type HeLa cells; test: FHBG uptake in wild-type HeLa cells, radioluminescence microscopy; type: cell-based, human; details: FHBG 300 μCi, 2 h
From the text: Generally, radioluminescence signals for FHBG-positive and FHBG-negative cells were more distinctly separated than fluorescence signals for RFP-positive and RFP-negative cells.

[6] = system: mammalian thymidine kinase (TK) enzymes; details: background statement; cited from earlier work
[7] = system: HSV1-TK (Human herpesvirus 1); details: background statement; cited from earlier work
Sequence of HSV1-TK (Human herpesvirus 1) (P0DTH5 whole entry): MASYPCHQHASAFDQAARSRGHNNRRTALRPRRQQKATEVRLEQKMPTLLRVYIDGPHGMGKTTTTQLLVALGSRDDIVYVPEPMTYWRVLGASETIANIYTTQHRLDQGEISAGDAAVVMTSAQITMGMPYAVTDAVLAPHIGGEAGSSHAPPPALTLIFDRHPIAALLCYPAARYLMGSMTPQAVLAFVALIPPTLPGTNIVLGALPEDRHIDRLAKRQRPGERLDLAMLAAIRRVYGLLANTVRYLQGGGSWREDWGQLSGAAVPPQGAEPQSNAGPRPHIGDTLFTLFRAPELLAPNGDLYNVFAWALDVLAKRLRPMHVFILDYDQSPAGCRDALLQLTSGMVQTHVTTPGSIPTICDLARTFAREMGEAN

Compound | colocalization between cell outline (brightfield) and radioluminescence intensity [1] | cell-to-cell variation of radioluminescence intensity (FDG uptake) ([2]; FDG 400 μCi 1 hour 37° C.) | correlation (r) of FDG uptake with uptake of 2-NBDG in single cells ([2]; FDG 400 μCi + 2-NBDG 100 μM 1 hour 37° C., P<10^−5) | cell radioactivity after withdrawal of FDG from the media ([3]; cells previously incubated with FDG 400 μCi, 1 hour) | cell radioactivity after addition of glucose to the medium ([3]; glucose 25 mM added at 2 hours) | time at which the majority of cells stopped accumulating FDG ([3]; glucose-deprived 1 hour, 5 μCi FDG in medium) | time course of cell radioactivity (FDG uptake) ([3]; glucose-deprived 1 hour, 5 μCi FDG, images every 6 minutes for 8 hours) | variation of Patlak coefficients across cells ([3]; two-tissue compartmental kinetic model of FDG influx) | radiotracer uptake pattern in transduced cells ([4]; 100× magnification) | cells that could not be seen on either radioluminescence or fluorescence image ([4]; 21/245 cells) | cells visible on brightfield clearly distinguishable both on radioluminescence and fluorescence images ([4]; 217/245 cells) | correlation (r) of RFP fluorescence intensity with FHBG radioluminescence intensity ([4]; transduced HeLa cells) | radioluminescence signal in wild-type HeLa cells [5] | affinity for mammalian thymidine kinase (TK) enzymes [6] | affinity for HSV1-TK [7]
OC[C@H]1OC(O)[C@H]([18F])[C@@H](O)[C@@H]1O (stereo partly drawn) [FDG, ^18F-fluorodeoxyglucose] | good colocalization | varied significantly from cell to cell | 0.74 | fast decrease in cell radioactivity | decline in cell radioactivity | approximately 3 hours | linear increase in radioactivity, followed by a plateau and a slow decrease after 3 hours | Large variations |  |  |  |  |  |  | 
Nc1nc2c(ncn2CCC(CO)C[18F])c(=O)[nH]1 (stereo not drawn) [FHBG, 9-(4-[^18F]-fluoro-3-hydroxy-methylbutyl) guanine] |  |  |  |  |  |  |  |  | focal radiotracer uptake | 9% | 88% | 0.34 | no measurable radioluminescence signal | low affinity | high affinity
